Reference: ChEMBL document CHEMBL1201862, “PubChem BioAssay data set” (2004)
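Method: 48-hour compound exposure of cells in 96-well plates, five concentrations, linear interpolation of endpoints. GI50 marks 50% less growth.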 Active and inactive are the calls of the source. Rule as the data show it: active = GI50 up to about 1.1 µM and inactive = higher.

How the values were obtained:
Assay in all cases: NCI-60 cell line screen, 48 h
DLD-1 = system: DLD-1
DMS-273 = system: DMS-273
KM-20L2 = system: KM-20L2
LXFL 529 = system: LXFL 529
M19-MEL = system: M19-MEL
RXF 631 = system: RXF 631
SNB-78 = system: SNB-78
XF498 = system: XF498
DMS-114 = system: DMS-114

Compound | GI50 (DLD-1) | GI50 (DMS-273) | GI50 (KM-20L2) | GI50 (LXFL 529) | GI50 (M19-MEL) | GI50 (RXF 631) | GI50 (SNB-78) | GI50 (XF498) | GI50 (DMS-114)
C[C@]12CC[C@H](O)CC1=CC[C@@H]1C2CC[C@]2(C)C(=O)N(N)C(=O)CC12 (stereo not given in full) | > 100 µM (inactive) | > 100 µM (inactive) | > 100 µM (inactive) | > 100 µM (inactive) | > 100 µM (inactive) | > 100 µM (inactive) | > 100 µM (inactive) | > 100 µM (inactive) | –
C/C=C(\C)C(=O)N1c2ccccc2CC1c1c(C)[nH]c2ccccc12 (stereo not given) | 8.18 µM (inactive) | 39.1 µM (inactive) | 47.4 µM (inactive) | 72.9 µM (inactive) | 61.7 µM (inactive) | > 100 µM (inactive) | 86.5 µM (inactive) | – | –
COc1cc(C2c3cc4c(cc3[C@@H](NCCN3CCCCC3)C3COC(=O)[C@H]23)OCO4)cc(OC)c1O (stereo not given in full) | 1.58 µM (inactive) | 0.0726 µM (active) | 1.17 µM (inactive) | 1.8 µM (inactive) | 0.805 µM (active) | – | 2.57 µM (inactive) | – | –
COc1cc2c3c(c1OCc1ccccc1)NCCC3NCC2 (stereo not given) | > 100 µM (inactive) | > 100 µM (inactive) | > 100 µM (inactive) | > 100 µM (inactive) | > 100 µM (inactive) | > 100 µM (inactive) | > 100 µM (inactive) | > 100 µM (inactive) | > 100 µM (inactive)
CCCCN(CCCC)CC(C(=O)Nc1ccc([N+](=O)[O-])cc1[N+](=O)[O-])/C(C)=N\NC(=S)NN (stereo not given) | > 100 µM (inactive) | > 100 µM (inactive) | > 100 µM (inactive) | > 100 µM (inactive) | > 100 µM (inactive) | – | – | > 100 µM (inactive) | > 100 µM (inactive)
CCN(CC)c1ccc(C2N3CCCCC3[C@@H]3c4[nH]c5ccccc5c4CCN23)cc1 (stereo not given in full) | 26 µM (inactive) | 32.9 µM (inactive) | 29.3 µM (inactive) | 21.3 µM (inactive) | 23.7 µM (inactive) | – | 22.1 µM (inactive) | 17.1 µM (inactive) | 14 µM (inactive)
C[N+](C)(C)CC(=O)N/N=C(\C(=O)NC1=C(Cl)C(=O)c2ccccc2C1=O)C(C#N)c1nc(-c2ccc([N+](=O)[O-])cc2)cs1 (stereo not given) | 11.3 µM (inactive) | 9.02 µM (inactive) | 14 µM (inactive) | 7.91 µM (inactive) | 0.889 µM (active) | – | 11.3 µM (inactive) | 9.46 µM (inactive) | 3.26 µM (inactive)
CN(C)c1nc(N(C)C)nc(N(C)CN(C)c2nc(N(C)C)nc(N(C)C)n2)n1 | > 100 µM (inactive) | > 100 µM (inactive) | > 100 µM (inactive) | 77.6 µM (inactive) | > 100 µM (inactive) | – | > 100 µM (inactive) | – | > 100 µM (inactive)
O=C(O)CNCc1c2ccccc2[n+]([O-])c2ccccc12 | 39.4 µM (inactive) | 46.7 µM (inactive) | 42.4 µM (inactive) | 27.7 µM (inactive) | 85.7 µM (inactive) | 83.4 µM (inactive) | 92.3 µM (inactive) | – | 25.9 µM (inactive)
Cc1ccc2nc(NC(=O)C(=O)CC(=O)c3cccc4ccccc34)sc2c1 | 49.7 µM (inactive) | 40.4 µM (inactive) | 46.3 µM (inactive) | 45.6 µM (inactive) | 35.5 µM (inactive) | – | 32.9 µM (inactive) | 45.9 µM (inactive) | –
O=C1/C(=C/c2ccccc2)CN(C(=O)/C=C/c2ccccc2)C/C1=C\c1ccccc1 | 4.14 µM (inactive) | 4.74 µM (inactive) | 12.8 µM (inactive) | 8.05 µM (inactive) | 5.22 µM (inactive) | 27.1 µM (inactive) | 22 µM (inactive) | 18.6 µM (inactive) | –
O=C1c2cccc3cc([N+](=O)[O-])cc(c23)C(=O)N1CCCN1CCN(CCCN2C(=O)c3cccc4cc([N+](=O)[O-])cc(c34)C2=O)CC1 | 0.0453 µM (active) | – | 0.45 µM (active) | 0.0349 µM (active) | 0.0931 µM (active) | 0.0344 µM (active) | 0.303 µM (active) | 0.0966 µM (active) | –
COC(=O)C(=O)C(C#N)c1cccc(Cl)c1 (stereo not given) | > 100 µM (inactive) | > 100 µM (inactive) | > 100 µM (inactive) | > 100 µM (inactive) | > 100 µM (inactive) | – | > 100 µM (inactive) | > 100 µM (inactive) | –
CN1CCN(C)C12C=CC=CC21CC1 | > 100 µM (inactive) | > 100 µM (inactive) | > 100 µM (inactive) | – | > 100 µM (inactive) | > 100 µM (inactive) | > 100 µM (inactive) | > 100 µM (inactive) | > 100 µM (inactive)
CC(N)C(=O)c1ccc(O)cc1 (stereo not given) | > 100 µM (inactive) | > 100 µM (inactive) | > 100 µM (inactive) | > 100 µM (inactive) | – | > 100 µM (inactive) | > 100 µM (inactive) | – | > 100 µM (inactive)
COc1ccc(/C(Cl)=C/c2cc(OC)ccc2OC)cc1 | 79.4 µM (inactive) | 35.2 µM (inactive) | 93.3 µM (inactive) | 72.1 µM (inactive) | 80 µM (inactive) | – | 79.6 µM (inactive) | 71.3 µM (inactive) | 42.3 µM (inactive)
